Assay results from US12441733B2, “Substituted 2,4-dioxotetrahydropyrimidines as intermediates in the synthesis of bruton's tyrosine kinase inhibitors” (Novartis AG, priority 2018, dated 2025).

Columns and labels:
Type in all cases: cell-based
BTK-GFP = biological target: T1, BTK-GFP (Homo sapiens, UniProt Q06187+Q96SW2); test: BTK-GFP protein abundance flow cytometry assay in HEK293A cells; details: HEK293A BTK-GFP-iresRFP cells, 24 h; for DC50: GFP signal by flow cytometry, concentration at which 50% maximal degradation was observed; for BTK deg Amax: % protein remaining at the concentration at which maximum degradation is seen
T1 construct: expressed in transfected cells; host or cells: HEK293A (Invitrogen R70507), lentiviral transduction with pLenti6-BTK-GFP-Ires-RFP, blasticidin selection
T1 sequence (Q06187 whole entry): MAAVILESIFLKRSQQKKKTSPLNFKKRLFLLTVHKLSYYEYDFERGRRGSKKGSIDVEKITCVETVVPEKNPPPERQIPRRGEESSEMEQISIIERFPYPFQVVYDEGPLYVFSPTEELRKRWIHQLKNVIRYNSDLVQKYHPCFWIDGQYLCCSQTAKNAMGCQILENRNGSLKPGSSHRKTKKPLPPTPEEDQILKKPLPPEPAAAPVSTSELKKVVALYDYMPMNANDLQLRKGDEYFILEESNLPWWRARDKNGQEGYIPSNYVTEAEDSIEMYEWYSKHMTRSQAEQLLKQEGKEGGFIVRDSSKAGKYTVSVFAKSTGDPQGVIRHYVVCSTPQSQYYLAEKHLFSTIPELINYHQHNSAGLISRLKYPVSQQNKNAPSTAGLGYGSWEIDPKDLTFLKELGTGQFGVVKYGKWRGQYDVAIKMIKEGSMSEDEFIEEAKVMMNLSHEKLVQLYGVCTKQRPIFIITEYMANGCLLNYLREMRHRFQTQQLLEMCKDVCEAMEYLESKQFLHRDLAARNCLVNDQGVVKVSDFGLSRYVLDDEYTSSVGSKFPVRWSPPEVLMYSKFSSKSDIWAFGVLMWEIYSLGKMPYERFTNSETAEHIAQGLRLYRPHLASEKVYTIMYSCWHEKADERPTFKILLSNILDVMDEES
T1 sequence (Q96SW2 whole entry): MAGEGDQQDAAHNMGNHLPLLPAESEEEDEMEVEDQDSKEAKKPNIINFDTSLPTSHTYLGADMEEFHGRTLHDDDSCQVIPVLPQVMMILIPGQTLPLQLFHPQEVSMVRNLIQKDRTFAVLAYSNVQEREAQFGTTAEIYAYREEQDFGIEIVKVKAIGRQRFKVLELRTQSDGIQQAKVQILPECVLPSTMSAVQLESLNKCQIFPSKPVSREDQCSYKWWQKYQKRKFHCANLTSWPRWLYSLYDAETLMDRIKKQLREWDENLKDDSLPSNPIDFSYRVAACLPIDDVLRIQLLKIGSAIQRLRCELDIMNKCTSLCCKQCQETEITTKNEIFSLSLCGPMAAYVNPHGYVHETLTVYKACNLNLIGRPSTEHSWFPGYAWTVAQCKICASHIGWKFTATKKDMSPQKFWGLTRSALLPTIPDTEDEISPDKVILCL
T1 sequence (Q16531 whole entry partner): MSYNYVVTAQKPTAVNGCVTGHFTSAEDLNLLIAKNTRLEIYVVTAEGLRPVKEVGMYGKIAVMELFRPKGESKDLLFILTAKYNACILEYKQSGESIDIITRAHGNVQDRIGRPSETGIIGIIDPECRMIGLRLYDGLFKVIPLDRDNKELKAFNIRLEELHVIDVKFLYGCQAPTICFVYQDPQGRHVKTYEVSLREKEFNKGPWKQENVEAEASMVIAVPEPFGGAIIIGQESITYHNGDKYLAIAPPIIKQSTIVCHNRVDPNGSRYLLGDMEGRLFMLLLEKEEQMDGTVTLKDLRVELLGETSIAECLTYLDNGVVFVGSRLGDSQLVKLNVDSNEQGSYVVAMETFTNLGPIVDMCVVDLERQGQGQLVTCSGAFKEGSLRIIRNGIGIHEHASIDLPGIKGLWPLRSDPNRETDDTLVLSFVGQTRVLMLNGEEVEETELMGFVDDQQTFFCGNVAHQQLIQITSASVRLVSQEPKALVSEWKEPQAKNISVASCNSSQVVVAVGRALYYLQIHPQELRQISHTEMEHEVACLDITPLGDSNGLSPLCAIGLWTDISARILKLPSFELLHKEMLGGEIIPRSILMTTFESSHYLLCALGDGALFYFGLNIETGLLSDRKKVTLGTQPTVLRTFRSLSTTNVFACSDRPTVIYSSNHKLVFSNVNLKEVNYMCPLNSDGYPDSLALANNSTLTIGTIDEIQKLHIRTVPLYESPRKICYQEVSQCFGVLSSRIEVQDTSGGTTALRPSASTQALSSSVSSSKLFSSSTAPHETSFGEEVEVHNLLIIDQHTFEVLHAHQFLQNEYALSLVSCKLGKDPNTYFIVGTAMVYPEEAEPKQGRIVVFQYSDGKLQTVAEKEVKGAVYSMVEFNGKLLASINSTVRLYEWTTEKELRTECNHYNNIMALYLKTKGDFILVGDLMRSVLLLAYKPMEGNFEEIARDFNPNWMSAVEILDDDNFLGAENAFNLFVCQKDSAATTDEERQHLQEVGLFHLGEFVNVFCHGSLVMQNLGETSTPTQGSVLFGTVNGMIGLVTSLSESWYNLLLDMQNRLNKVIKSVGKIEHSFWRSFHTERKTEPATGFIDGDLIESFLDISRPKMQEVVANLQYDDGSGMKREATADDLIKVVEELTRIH
Procedure: (§1) Compounds of the invention were tested in the following cellular assays. The terms in Table 2 are defined as follows: DC50 refers to the concentration at which 50% maximal degradation was observed; deg Amax is the extent of degradation and the value refers to the % protein remaining at the concentration at which maximum degradation is seen; ProI GI50 refers to the proliferation data and defines the concentration at which 50% growth inhibition was observed compared to the vehicle treated control at the end of the incubation time. TMD8 cells are BTK dependent and OCI-LY3 cells are BTK independent.
BTK-GFP and IKZF3-GFP protein abundance flow cytometry assay in HEK293A cells:
Degradation of BTK or IKZF3 was measured in HEK293A cells (Invitrogen R70507) expressing either BTK-GFP and RFP or IKZF3-GFP and RFP from a stably integrated bicistronic BTK-GFP-iresRFP or IKZF3-GFP-iresRFP construct, respectively. Reduction of the GFP signal measured by flow cytometry served as readout for BTK or IKZF3 degradation after degrader treatment.
i) Cloning of the pLenti6-BTK-GFP-1Res-RFP and IKZF3-GFP-Ires-RFP Sensor Vectors
The bicistronic BTK-GFP-iresRFP construct is based on a pLenti6-DEST vector backbone where GFP was introduced into the unique Xho1 site downstream of the destination cassette (DEST) and RFP was cloned behind an internal ribosomal entry site (Ires).
In detail, the sensor construct was engineered by replacing NanoLuciferase (NLuc) by GFP and FireFly luciferase (FF) by RFP from pLenti6-DEST-NLuc-Ires-FF.
The pLenti6-DEST-NLuc-Ires-FF sensor construct was cloned by replacing eGFP from pLenti6-DEST-ires-eGFP with a synthesized stuffer element (encoding Ires-FF with FF flanked by two Nhe1 restriction sites) using blunt end cloning replacing Ires-eGFP between the two PmII. To enable C-terminal tagging with NanoLuciferase (NLuc), NLuc was amplified from pNL1.1 (Promega #N1001) using linker primers with Xho1 sites for ligating into linearized pLenti6-DEST-Ires-FF using Xho1 digest resulting in the construct pLenti6-DEST-NLuc-Ires-FF.
The pLenti6-DEST-NLuc-Ires-FF served as base vector for cloning pLenti6-DEST-GFP-Ires-RFP using Gibson assembly to replace FF with RFP and NLuc with GFP. In a first round FF was replaced by RFP by amplifying RFP from a template using the following Gibson assembly linker primers (Gibson-Nhe1 RFPfw, […]gctagc[…] (SEQ ID NO: 1); Gibson-Nhe1 RFP-Stoprev, […]ctagc[…] (SEQ ID NO: 2)) to clone into pLenti6-DEST-NLuc-Ires-FF digested with Nhe1 and gel-purified to remove the FF fragment. The resulting pLenti6-DEST-NLuc-Ires-RFP vector served as the template to replace NLuc with GFP by amplifying GFP from a template using following Gibson assembly linker primers (Gibson-Xho1 GFPfw, […]c[…] (SEQ ID NO: 3); Gibson-Xho1 GFP-Stoprev, […] (SEQ ID NO: 4)) to clone into pLenti6-DEST-NLuc-Ires-RFP digested with Xho1 and gel-purified to remove the NLuc fragment. All Gibson assembly reactions were performed with Gibson assembly Master Mix (New England Biolabs NEB E261 IL) according to manufacturer's manual, resulting in the destination vector pLenti6-DEST-GFP-Ires-RFP to allow Gateway cloning. To enable gateway cloning and C-terminal GFP tagging of BTK, the BTK open reading frame (ORF) was first shuttled from a pcDNA-DEST40-BTK vector (Invitrogen library ID INV_20090504v1) into pDONR221 (Invitrogen 12536-017) vector using a gateway BP reaction according to the manufacturer's manual (Invitrogen 11789-013) resulting in the novel construct pENTR221-BTK. For C-terminal tagging the STOP codon was mutated to a leucine performing a mutagenesis reaction with the following primers (pENTR221-BTK Quikchange STOP-Leu fw, gtcatggatgaagaatccTTGaacccagctttcttgtac; pENTR221-BTK Quikchange STOP-Leu REVC, gtacaagaaagctgggttCAAggattcttcatccatgac) using the QuikChange Lightning mutagenesis kit (Agilent Technologies #210518) according to the manufacturer's manual, resulting in pENTR221-BTK (STOP-Leu). […]

OCI-LY3 cells = test: Resazurin cell viability (proliferation) assay in OCI-LY3 DLBCL cells; details: Homo sapiens, OCI-LY3 cells (BTK independent), 72 h, 50% growth inhibition vs vehicle, read-out: OCI-LY3 Prol GI50
Procedure: as §1
(§2) Cell Viability Assay in DLBCL (Diffuse Large B-Cell Lymphoma) Cells:
(§3) The effect of the BTK compounds on cell proliferation was measured by a Resazurin (Sigma, #R7017) based cell viability assay. TMD8 (BTK compound sensitive) and OCI-LY3 (BTK compound insensitive) cells were incubated for 72 h at 37° C. and 5% CO2 with the corresponding compound, Resazurin is a non-toxic, cell-permeable substrate that is virtually non-fluorescent. Upon entering living cells, Resazurin (Sigma, #R7017) is reduced to highly fluorescent Resorufin. The metabolic activity was assessed by measuring the fluorescence signal (ex. 530 nm; em. 600 nm).
(§4) TMD8 and OCI-Ly3 cells were seeded at day 0 in triplicates at a cell density of 1×10^4 cells per 150 μl/well in a 96-well plate (Costar #3904). Additional plates were prepared, in order to assess the basal metabolic activity of both cell lines at the beginning of the experiment. For these reference plates, Resazurin (Sigma, #R7017) was added to a final concentration of 13 μg/ml 3 h post seeding and was incubated for 2 h at 37° C. and 5% CO2. Following incubation, the fluorescent signal intensity of the 96-well plates was measured on a Mithras LB940 multimode plate reader at 530/600 nm (Berthold Technologies, Germanyl).
(§5) In parallel, 3 h post-seeding, test-plates were treated with compound at various concentrations, or with vehicle (DMSO) alone for 3 days. The compound addition to the plates was performed by using a HP D300 digital dispenser (TECAN, Switzerland). The compounds were tested in triplicate, 8-point serial dilution (1:4), with a start concentration of 10 μM for OCI-LY3 and 1 μM for the TMD8 cells, respectively. To assess the relative proliferation of the cells, Resazurin was added to each well directly to the medium to a final concentration of 13 μg/ml. The plates were incubated for 2 h at 37° C. and 5% CO2 to result in a 72 h endpoint. Following incubation, the fluorescent signal intensity of the 96-well plates were measured on a Mithras LB940 multimode plate reader at 530/600 nm (Berthold Technologies, Germanyl). The formation of Resorufin dye directly correlates with the number of metabolically active cells. For each triplicate treatment the mean and standard deviation were calculated and analyzed via curve fitting software to determine the respective compound concentration resulting in 50% growth inhibition (GI50) values. For each compound GI50 values were typically determined from at least 2 entirely independent experiments.
OCI-LY3 cells were acquired through a license agreement with University Health Network, Toronto, Canada. Cells are cultivated in RPM11640 media (Gibco, #61870-010, lot. 1894759), supplemented with 10% FCS (HyClone, GE #SH30066.03, lot AB217603), 2 mM L-Glutamine (BioConcept, #5-10K50-H, lot. LA03467P), 1 mM Sodium Pyruvate (BioConcept, #5-60F00-H, lot. LB10510P), 10 mM HEPES (Gibco, #15630-056, lot. 1854074), 1% Pen/Strep (BioConcept, #4-01F00-H, lot. LB04235P).

TMD8 cells = test: Resazurin cell viability (proliferation) assay in TMD8 DLBCL cells; details: Homo sapiens, TMD8 cells (BTK dependent), 72 h, 50% growth inhibition vs vehicle, read-out: TMD8 Prol GI50
Procedure: as §1, §2, §3, §4, §5
TMD8 cells were acquired through a license agreement with Tokyo Medical and Dental University, Japan. Cells are cultivated in MEM Alpha (BioConcept, #1-23F01-1, lot. LB04262P) supplemented with 10% FCS (HyClone, GE #SH30066.03, lot AB3217603), 2 mM L-Glutamine (BioConcept, #5-10K50-H, lot. LA03467P), 1% Pen/Strep (BioConcept, #4-01F00-H, lot. LB04235P).

Row | Compound | DC50 (BTK-GFP) [nM] | BTK deg Amax (BTK-GFP) [%] | GI50 (OCI-LY3 cells) [nM] | GI50 (TMD8 cells) [nM]
1 | COc1ccc(C(=O)N2CCN(CCNCCCOCc3ccc(-c4cc5c(-c6cc(F)cc(NC(=O)c7ccc(C(C)(C)O)cc7F)c6C)ncnc5[nH]4)cc3)CC2)cc1N1CCC(=O)NC1=O [Compound 45, N-(3-(6-(4-((3-((2-(4-(3-(2,4-dioxotetrahydropyrimidin-1(2H)-yl)-4-methoxybenzoyl)piperazin-1-yl)ethyl)amino)propoxy)methyl)phenyl)-7H-pyrrolo[2,3-d]pyrimidin-4-yl)-5-fluoro-2-methylphenyl)-2-fluoro-4-(2-hydroxypropan-2-yl)benzamide] | 284 | 3.2 | > 10000 | 19.1
2 | COc1ccc(C(=O)N2CCN(CCN3CCC(OCc4ccc(-c5cc6c(-c7cc(F)cc(NC(=O)c8ccc(C(C)(C)O)cc8F)c7C)ncnc6[nH]5)cc4)CC3)CC2)cc1N1CCC(=O)NC1=O [Compound 21, N-(3-(6-(4-(((1-(2-(4-(3-(2,4-dioxotetrahydropyrimidin-1(2H)-yl)-4-methoxybenzoyl)piperazin-1-yl)ethyl)piperidin-4-yl)oxyl)methyl)phenyl)-7H-pyrrolo[2,3-d]pyrimidin-4-yl)-5-fluoro-2-methylphenyl)-2-fluoro-4-(2-hydroxypropan-2-yl)benzamide] | 1.8 | 3.7 | 6830 | 0.6
3 | COc1ccc(C(=O)N2CCC(CCN3CCC(Oc4ccc(-c5cc6c(-c7cc(F)cc(NC(=O)c8ccc(C(C)(C)O)cc8F)c7C)ncnc6[nH]5)cc4)CC3)CC2)cc1N1CCC(=O)NC1=O [Compound 38, N-(3-(6-(4-((1-(2-(1-(3-(2,4-dioxotetrahydropyrimidin-1(2H)-yl)-4-methoxybenzoyl)piperidin-4-yl)ethyl)piperidin-4-yl)oxy)phenyl)-7H-pyrrolo[2,3-d]pyrimidin-4-yl)-5-fluoro-2-methylphenyl)-2-fluoro-4-(2-hydroxypropan-2-yl)benzamide] | 0.9 | 4.1 | 4440 | 0.51

Second part, led by results:

Row | DC50 (BTK-GFP) [nM] | BTK deg Amax (BTK-GFP) [%] | GI50 (OCI-LY3 cells) [nM] | Compound | GI50 (TMD8 cells) [nM]
4 | 0.8 | 1.8 | 3390 | COc1ccc(C(=O)N2CCC(CCN3CCC(OCc4ccc(-c5cc6c(-c7cc(F)cc(NC(=O)c8ccc(C(C)(C)O)cc8F)c7C)ncnc6[nH]5)cc4)CC3)CC2)cc1N1CCC(=O)NC1=O [Compound 13, N-(3-(6-(4-(((1-(2-(1-(3-(2,4-Dioxotetrahydropyrimidin-1(2H)-yl)-4-methoxybenzoyl)piperidin-4-yl)ethyl)piperidin-4-yl)oxyl)methyl)phenyl)-7H-pyrrolo[2,3-d]pyrimidin-4-yl)-5-fluoro-2-methylphenyl)-2-fluoro-4-(2-hydroxypropan-2-yl)benzamide] | 0.18
5 | 93.7 | 12.1 | 6120 | Cc1cc(F)c(C(=O)N(C)CCCCCNCc2ccc(-c3cc4c(-c5cc(F)cc(NC(=O)c6ccc(C(C)(C)O)cc6F)c5C)ncnc4[nH]3)cc2)cc1N1CCC(=O)NC1=O [Compound 28, 5-(2,4-Dioxotetrahydropyrimidin-1(2H)-yl)-2-fluoro-N-(5-((4-(4-(5-fluoro-3-(2-fluoro-4-(2-hydroxypropan-2-yl)benzamido)-2-methylphenyl)-7H-pyrrolo[2,3-d]pyrimidin-6-yl)benzyl)amino)pentyl)-N,4-dimethylbenzamide] | 7.16
6 | 22.2 | 5.9 | 4280 | COc1ccc(C(=O)N2CCC(C(=O)N3CCN(Cc4ccc(-c5cc6c(-c7cc(F)cc(NC(=O)c8ccc(C(C)(C)O)cc8F)c7C)ncnc6[nH]5)cc4)CC3)CC2)cc1N1CCC(=O)NC1=O [Compound 33, N-(3-(6-(4-((4-(1-(3-(2,4-dioxotetrahydropyrimidin-1(2H)-yl)-4-methoxybenzoyl)piperidine-4-carbonyl)piperazin-1-yl)methyl)phenyl)-7H-pyrrolo[2,3-d]pyrimidin-4-yl)-5-fluoro-2-methylphenyl)-2-fluoro-4-(2-hydroxypropan-2-yl)benzamide] | 3.97
7 | 77.1 | 10.8 | > 10000 | COc1ccc(C(=O)N2CCC3(CCN(Cc4ccc(-c5cc6c(-c7cc(F)cc(NC(=O)c8ccc(C(C)(C)O)cc8F)c7C)ncnc6[nH]5)cc4)C[C@@H]3CO)CC2)cc1N1CCC(=O)NC1=O (single isomer, unassigned) [Compound 24] | 5.98
